Data: patent publication US5236955A, “Anti-fungal agent” (Washington University, priority 1992, dated 1993)

Experiments:
Type in all cases: cell-based
S. cerevisiae = assay: Viability of S. cerevisiae; settings: Saccharomyces cerevisiae
Method: Oxatetradecanoic acids were added (final concentraton=25-500 μM) as a single dose to log phase cultures of C. alibcans grown in SAB at 30° C. (Panels A and B) and to log phase cultures of S. cerevisiae grown in YPD at 30° C. (Panels C and D). The results were compared to the number of viable organisms present in cultures treated with 0.1% EtOH alone. […] A single does of alphotericin B (final concentration=55 μM) was added to parallel cultures which served as positive controls. Assays were done in duplicate. Representative tests are shown.
Saccharomyces cerevisiae strain YM2061 (MATa ura3-52 his3Δ200 ade2-101 lys2-801 met LEU2::pRY181 can1; Flick and Johnston, Mol. Cell. Biol. 10, 4757-4769 (1990), Candida albicans strain B311 (obtained from the American Type Tissue Culture, Rockville, Md.), or Cryptococcus neoformans strain L210425 (a clinical isolate that is part of the permanent culture collection of the Mycology Laboratory, Barnes Hospital, St. Louis, Mo.) were grown overnight at 30 C. The S. cerevisiae strain was incubated in YPD medium (1% bacto-yeast extract, Gibco, Long Island, N.Y.), 2% bacto-peptone (Gibco), 2% dextrose). The C. albicans and C. neoformans strains were grown in Sabouraud's media (SAB; 2% (w/v) dextrose, 1% bacto-peptone). The following morning the cultures were diluted into fresh medium to the desired density at 600 nm (early log phase), and subsequently incubated in a rotary shaker at 30° C. until an A600 =0.5 (mid log phase) was achieved. The culture was then divided into 10 ml aliquots. A single 10 μl aliquot of a stock solution of fatty acid analog (prepared in various concentrations using absolute ethanol) was added to the culture so that the final concentration of the compound was 100-500 μM (T=0). Ten microliters of ethanol alone was added to one 10 ml culture which served as the negative control. Amphotericin B (AmB; in the form of Fungizone, Squibb) was added (final concentration=55 μM) to another culture which served as the positive control. At T=0 and 0.5-24 h after addition of fatty acid analog to the subcultures, an aliquot was removed for determining the density of the subculture at 600 nm. Cell viability was determined at each of these time points by (i) serially diluting the aliquot in 0.15M NaCl and counting cell number in a hemocytometer and (ii) plating 2-3 of the dilutions in triplicate onto plates of SAB/agar (C. albicans and C. neoformans) or YPD/agar (S. cerevisiae). These plates were subsequently incubated at 30° C. for 24-48 hr to allow for the growth of colonies. The data were expressed as the ratio of viable cells/ml in the fatty acid analog treated subculture to the number of viable cells/ml in the negative (ethanol) control culture.

C. albicans lipids = assay: Incorporation of label into total cellular lipids; settings: 1 hr, 30° C.
Method: (§1) Cells were incubated with the indicated [^3 H]fatty acid (specific activity=30 Ci/mmol, 100 μCi/ml media) for 1 h at 30° C. After the organisms were pelleted and washed, spheroplasts were prepared and total lipids extracted. Tests were done on two separate occasions. The incorporation of label from each of the oxatetradecanoic acid analogs and from palmitate into total cellular lipids is expressed as a percentage of the total amount of label incorporated from [^3 H]myristate.
(§2) Analysis of the incorporation of exogenous fatty acids into cellular phospholipids and neutral lipids--Five ml cultures were labeled with each of the 5 tritiated fatty acids or with [9,10(n)^3 H]palmitate (30 Ci/mmol) at 30° C. for 60 min (S. cerevisiae and C. albicans) or for 75 min (C. neoformans) as described in the preceding paragraph. S. cerevisiae and C. albicans cells were then pelleted by centrifugation at 4000×g for 5 min. and washed first in water followed by a wash with 1M sorbitol. […]
(§3) Dried lipids were resuspended in 500 μl CHCl3 :MeOH(1:1). A 2 μl aliquot was counted in a scintillation counter to determine the extent of incorporation of label into cellular lipids. […]

C. neoformans lipids = assay: Incorporation of label into total cellular lipids; settings: 1 hr, 30° C.
Method: as §1, §2, §3

## CCCCCCCCCCOCCC(=O)O [O4, 4-oxatetradecanoic acid]
S. cerevisiae; 300 μM, 2 hr after addition, read-out: reductions in the number of viable S. cerevisiae
  log reduction at 300 µM: < 0.699
S. cerevisiae; 500 μM, read-out: reduction in the number of viable organisms (S. cerevisiae)
  log reduction at 500 µM: 1 to 2
C. albicans lipids
  label incorporated into C. albicans lipids, of the amount observed with [3H]myristate: 27-28%
C. neoformans lipids
  label incorporated into C. neoformans lipids, of the amount observed with [3H]myristate: 27-28%
